In patent US20070004634A1 (Novo Nordisk A/S, priority 1998, published 2007):
No end group written: not given here.

Columns and labels:
[1] = tested on: free fat cells (adipocytes); assay: Adipocyte / free fat cell (FFC) assay, 3H glucose incorporation into lipid; conditions: FFC assay potency grade; 0, + to ++++++, −
Procedure: Incorporation of ^3H into the lipid phase was determined by partitioning of lipid phase into a scintillant mixture, which excludes water-soluble ^3H products.

IGF-1R = IGF-1R (Homo sapiens, UniProt P08069); assay: Phage ELISA, binding of phage clones to IGF-1R (ratio over background); conditions: ratio of IGF-1R divided by ratio of IR
Procedure: (§1) HIT indicates binder; CAND indicates binder candidate; LDH indicates binding to lactate dehydrogenase (negative control); Sp/Irr indicates the ratio of specific binding over non-specific binding.
(§2) Sp/Irr=the ratio of specific binding over non-specific binding; LDH=lactate dehydrogenase (negative control).
(§3) For phage pools, cells from frozen stocks were grown and phage were prepared as described above. For analysis of individual clones, colonies were picked and phage prepared as described above. Subsequent steps were the same for pooled and clonal phage. Microtiter wells were coated and blocked as described above. […] Phage resuspended in MPBS (PBS containing 2% non-fat milk) were added to wells (100 μl/well) and incubated at room temperature for 1 h. The phage solution was then removed, and the wells were washed three times with PBS at room temperature.
(§4) Anti-M13 antibody conjugated to horseradish peroxidase (Pharmacia Biotech) was diluted 1:3000 in MPBS and added to each well (100 μl/well). Incubation was for another hour at room temperature, followed by PBS washes as described. Color was developed by addition of ABTS solution (100 μl/well; Boehringer). […] Data points were averaged after subtraction of appropriate blanks. A clone was considered “positive” if the A405 of the well was ≧2-fold over background.

IR = IR (Homo sapiens, UniProt P06213); assay: Phage ELISA, binding of phage clones to IR (ratio over background); conditions: ratio of IR divided by ratio of IGF-1R
Procedure: as §1, §2, §3, §4

Molecule	FFC [1]	Comparisons IGF-1R/IR (IGF-1R)	Comparisons IR/IGF-1R (IR)
CC(C)[C@H](NC(=O)[C@H](Cc1ccccc1)NC(=O)[C@H](Cc1c[nH]c2ccccc12)NC(=O)[C@H](CC(=O)O)NC(=O)[C@H](Cc1ccc(O)cc1)NC(=O)[C@H](Cc1ccccc1)NC(=O)[C@H](CC(N)=O)NC(=O)[C@H](CCC(=O)O)NC(=O)[C@H](Cc1c[nH]cn1)NC(=O)[C@@H](N)Cc1ccccc1)C(=O)N[C@@H](CCCNC(=N)N)C(=O)N[C@@H](CCC(N)=O)C(=O)N[C@H](C(=O)N[C@@H](CO)C(=O)N[C@@H](CCCCN)C(=O)N[C@@H](CCCCN)C(=O)NC[C@H](NC(=O)[C@H](CCCCN)NC(=O)[C@H](CCCCN)NC(=O)[C@H](CO)NC(=O)[C@@H](NC(=O)[C@H](CCC(N)=O)NC(=O)[C@H](CCCNC(=N)N)NC(=O)[C@@H](NC(=O)[C@H](Cc1ccccc1)NC(=O)[C@H](Cc1c[nH]c2ccccc12)NC(=O)[C@H](CC(=O)O)NC(=O)[C@H](Cc1ccc(O)cc1)NC(=O)[C@H](Cc1ccccc1)NC(=O)[C@H](CC(N)=O)NC(=O)[C@H](CCC(=O)O)NC(=O)[C@H](Cc1c[nH]cn1)NC(=O)[C@@H](N)Cc1ccccc1)C(C)C)C(C)C)C(=O)O)C(C)C [Peptide S128]	++	–	–
CC(C)[C@H](NC(=O)[C@H](Cc1ccccc1)NC(=O)[C@H](Cc1c[nH]c2ccccc12)NC(=O)[C@H](CC(=O)O)NC(=O)[C@H](Cc1ccc(O)cc1)NC(=O)[C@H](Cc1ccccc1)NC(=O)[C@H](CC(N)=O)NC(=O)[C@H](CCC(=O)O)NC(=O)[C@H](Cc1c[nH]cn1)NC(=O)[C@@H](N)Cc1ccccc1)C(=O)N[C@@H](CCCNC(=N)N)C(=O)N[C@@H](CCC(N)=O)C(=O)N[C@H](C(=O)N[C@@H](CO)C(=O)N[C@@H](CCCCN)C(=O)N[C@@H](CCCCN)C(=O)NCCCC[C@H](NC(=O)[C@H](CCCCN)NC(=O)[C@H](CCCCN)NC(=O)[C@H](CO)NC(=O)[C@@H](NC(=O)[C@H](CCC(N)=O)NC(=O)[C@H](CCCNC(=N)N)NC(=O)[C@@H](NC(=O)[C@H](Cc1ccccc1)NC(=O)[C@H](Cc1c[nH]c2ccccc12)NC(=O)[C@H](CC(=O)O)NC(=O)[C@H](Cc1ccc(O)cc1)NC(=O)[C@H](Cc1ccccc1)NC(=O)[C@H](CC(N)=O)NC(=O)[C@H](CCC(=O)O)NC(=O)[C@H](Cc1c[nH]cn1)NC(=O)[C@@H](N)Cc1ccccc1)C(C)C)C(C)C)C(=O)O)C(C)C [Peptide S145]	++	–	–
CC(C)[C@H](NC(=O)[C@H](Cc1ccccc1)NC(=O)[C@H](Cc1c[nH]c2ccccc12)NC(=O)[C@H](CC(=O)O)NC(=O)[C@H](Cc1ccc(O)cc1)NC(=O)[C@H](Cc1ccccc1)NC(=O)[C@H](CC(N)=O)NC(=O)[C@H](CCC(=O)O)NC(=O)[C@H](Cc1c[nH]cn1)NC(=O)[C@H](Cc1ccccc1)NC(=O)[C@@H](N)CNC(=O)CON=CCCCCC=NOCC(=O)NC[C@H](N)C(=O)N[C@@H](Cc1ccccc1)C(=O)N[C@@H](Cc1c[nH]cn1)C(=O)N[C@@H](CCC(=O)O)C(=O)N[C@@H](CC(N)=O)C(=O)N[C@@H](Cc1ccccc1)C(=O)N[C@@H](Cc1ccc(O)cc1)C(=O)N[C@@H](CC(=O)O)C(=O)N[C@@H](Cc1c[nH]c2ccccc12)C(=O)N[C@@H](Cc1ccccc1)C(=O)N[C@H](C(=O)N[C@@H](CCCNC(=N)N)C(=O)N[C@@H](CCC(N)=O)C(=O)N[C@H](C(=O)N[C@@H](CO)C(=O)N[C@@H](CCCCN)C(=O)N[C@@H](CCCCN)C(N)=O)C(C)C)C(C)C)C(=O)N[C@@H](CCCNC(=N)N)C(=O)N[C@@H](CCC(N)=O)C(=O)N[C@H](C(=O)N[C@@H](CO)C(=O)N[C@@H](CCCCN)C(=O)N[C@@H](CCCCN)C(N)=O)C(C)C [Peptide S169]	++	–	–
CC(C)[C@H](NC(=O)[C@H](Cc1ccccc1)NC(=O)[C@H](Cc1c[nH]c2ccccc12)NC(=O)[C@H](CC(=O)O)NC(=O)[C@H](Cc1ccc(O)cc1)NC(=O)[C@H](Cc1ccccc1)NC(=O)[C@H](CC(N)=O)NC(=O)[C@H](CCC(=O)O)NC(=O)[C@H](Cc1c[nH]cn1)NC(=O)[C@H](Cc1ccccc1)NC(=O)[C@@H](N)CNC(=O)CON=CCCCCCCC=NOCC(=O)NC[C@H](N)C(=O)N[C@@H](Cc1ccccc1)C(=O)N[C@@H](Cc1c[nH]cn1)C(=O)N[C@@H](CCC(=O)O)C(=O)N[C@@H](CC(N)=O)C(=O)N[C@@H](Cc1ccccc1)C(=O)N[C@@H](Cc1ccc(O)cc1)C(=O)N[C@@H](CC(=O)O)C(=O)N[C@@H](Cc1c[nH]c2ccccc12)C(=O)N[C@@H](Cc1ccccc1)C(=O)N[C@H](C(=O)N[C@@H](CCCNC(=N)N)C(=O)N[C@@H](CCC(N)=O)C(=O)N[C@H](C(=O)N[C@@H](CO)C(=O)N[C@@H](CCCCN)C(=O)N[C@@H](CCCCN)C(N)=O)C(C)C)C(C)C)C(=O)N[C@@H](CCCNC(=N)N)C(=O)N[C@@H](CCC(N)=O)C(=O)N[C@H](C(=O)N[C@@H](CO)C(=O)N[C@@H](CCCCN)C(=O)N[C@@H](CCCCN)C(N)=O)C(C)C [Peptide S172]	+++	–	–
RCGRELYHSTFYDWFDRQVAGRTCPS [H2CA-1-A7-IGFR]	–	3.7	0.3
RCGRW*AEMGAGDDPFYHKLSELVCG (RCGRWXAEMGAGDDPFYHKLSELVCG; not fully specified; X: residue not identified in the source; cysteine pairing not given here) [Peptide B6Hα-2-C4-IR]	–	11.0	0.1
RCQGTGFYTCIQELIGFGDPD [20E2B-4-H9-IGFR]	–	5.6	0.2
RFDPFYSYFVNLLGASA [NNRPγ-4-A7-IR]	–	4.9	0.2
RFSTDGFYQYLLALVGGGPVG [20E2B-1-A11-IGFR]	–	9.7	0.1
RGAVAGFHDQFYDWFDRQVSRVHKFG [H2CA-4-H9-IGFR]	–	3.0	0.3
RGIVAMVEATEVGSDHPFYHKLSELVQGS [Peptide B6Hα-2-C7-IR]	–	6.7	0.1
RGKTAAVIVGRPADPFYHKLSELLQGG [Peptide B6Hα-3-E8-IR]	–	4.8	0.2
RGMKEEVLVGGSTDPFYHKLSELLQGS [B6Hα-3-F11-IR]	–	11.7	0.1
RGQSDAFYSGLWALIGLSDG [Peptide R20β-4-A6-IR]	–	17.3	0.1
RLFYCGIQALGANLGYSGCV [R20α-4-20A12-IR]	–	16.6	0.1
RQGTGSFYLMLEQLLVGARGP [20E2B-4-G11-IGFR]	–	7.0	0.1
SACQFDCHENFYDWFARQVSGGAAYG [H2CA-4-H8-IGFR]	–	9.4	0.1
SGAKVIVVTGDSGDPFYHKLSELLQGS [B6Hα-2-C10-IR]	–	5.3	0.2
SQAGSAFYAWFDQVLRTVHSA [20E2Bβ-4-G6-IR]	–	3.3	0.3
SRAKVEAEMPDSGDPFYHKLSELLASG [Peptide B6Hα-1-A3-IR]	–	3.3	0.3

Molecule	FFC [1]	Comparisons IGF-1R/IR (IGF-1R)	Comparisons IR/IGF-1R (IR)
SRVAATKEKRPSDDPFYHKLSELLQGS [Peptide B6Hα-3-F7-IR]	–	3.1	0.3
SSCDGAGHESFYEWFVRQVSGCRSV [H2CA-3-C8-IGFR]	–	4.8	0.2
SSETAKMVTGTRDDPFYHKLSELVQGS [Peptide B6Hα-D8-IR]	–	3.0	0.3
SSIGGGEHENFYDWFSRQLSQSPPLK [H2CA-4-F7-IGFR]	–	4.1	0.2
SSYGCDGFYLMLFSLGLVASQELEC [20C-3-A1-IGFR]	–	13.7	0.1
TFYSCLASLLTGTPQPNRGPWERCR [20C-3-G3-IGFR]	–	27.0	<0.1
TLDGGSFEEQFYDWFVRQLSYRTNPD [H2CA-4-G11-IGFR]	–	3.9	0.3
TLRSPTFYDWLEMVLTHGQGG [20E2B-1-A8-IGFR]	–	5.0	0.2
TSEVQRRSQDNFYDWFVAQVA [Peptide A6S-3-E2-IR]	–	2.5	0.4
VATSQGFYSGLSELLQGGGNV [20E2B-3-E12-IGFR]	–	7.3	0.1
VDTPAQVGWNRLWSVGPGEHWYTDDPFYH*LSELLRESGA [Peptide B6L-3-G6-IR]	–	1.4	0.7
VERSASSQDGNFYDWFVVQIR [Peptide A6S-2-D1-IR]	–	2.6	0.4
VGYQGQGDENFYDWFIRQVSGRLGVQ [H2CA-4-F5-IGFR]	–	12.3	0.1
VNQSGSIHENFYDWFERQVSHQRGVR [H2CA-4-F10-IGFR]	–	5.9	0.2
VVTPVNFYRALEALVRG.RLG (VVTPVNFYRALEALVRGXRLG; not fully specified; printed as VVTPVNFYRALEALVRG.RLG; X: residue not identified in the source; ends and bridges not checked) [20E2B-2-B11-IGFR]	–	9.4	0.1
W.GYAWLS [40F-4-D10-IGFR]	–	11.7	0.1
YRGMLVLGRISDGAG#VASEPPARIGRKVFAVNFYDWFV [Peptide A6L-0-E4-IR]	–	13.0	0.1
YRGMLVLGRISGGAGKAASERPARIGQKVSAVNFYDWFV [Peptide A6L-0-H3-IR]	–	13.0	0.1
YRGMLVLGRSSDGAGKVAFERPARIGQTVFAVNFYDWFV [Peptide A6L-0-E6-IR]	–	17.0	0.1
YSCGDGFYSLLSDLLGGQFRC [20E2B-4-H12-IGFR]	–	12.8	0.1
